The term half-life denotes the time needed for the level to fall by half in the phase considered. By Ki is commonly meant a dissociation constant, usually derived from enzyme kinetics or from competition with a known ligand. Lower therefore signals higher affinity.

Among the data in ChEMBL document CHEMBL1133398, “Mechanism-based inactivation of thymidylate synthase by 5-(3-fluoropropyn-1-yl)-2'-deoxyuridine 5'-phosphate” (Bioorg Med Chem Lett, 2000) are half-life and Ki values, retold here.

Data set [1] in a line: Half life was determined. Type of data set: ADME. As to conditions: rat.
The target in another data set is T1, Thymidylate synthase (Lactobacillus casei, UniProt P00469).
T1 sequence (P00469 whole entry): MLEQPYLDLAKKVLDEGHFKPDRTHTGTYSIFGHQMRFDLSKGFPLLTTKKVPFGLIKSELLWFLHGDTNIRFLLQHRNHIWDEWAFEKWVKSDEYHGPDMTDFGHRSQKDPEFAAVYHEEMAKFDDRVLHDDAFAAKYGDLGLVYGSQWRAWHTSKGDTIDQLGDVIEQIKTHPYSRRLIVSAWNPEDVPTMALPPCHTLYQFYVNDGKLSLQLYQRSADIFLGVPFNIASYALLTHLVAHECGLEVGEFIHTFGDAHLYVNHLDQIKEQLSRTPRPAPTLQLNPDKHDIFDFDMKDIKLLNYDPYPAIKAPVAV
Briefly: The compound was evaluated for the binding affinity against Lactobacillus casei dTMP synthase using spectrophotometric assay. Also on record: species or system Lacticaseibacillus casei.

`O=c1[nH]c(=O)n([C@H]2C[C@H](O)[C@@H](COP(=O)(O)O)O2)cc1C#CCF`: in data set [1], the half-life was less than 1 min. The Ki on Thymidylate synthase came to 14.8 nM.
